The test deals with TRPV1 (Rattus norvegicus, UniProt O35433). As to the kind of experiment: Fura-2 calcium imaging in rat DRG neurons. Type of test: cell-based.

Results on one compound are retold here after paper PMC7494392 (Journal of Pain Research, 2020).

Broadly, the EC50 is the concentration giving half of the maximal effect.

Structures are written as SMILES.

Sequence of TRPV1 (O35433 whole entry): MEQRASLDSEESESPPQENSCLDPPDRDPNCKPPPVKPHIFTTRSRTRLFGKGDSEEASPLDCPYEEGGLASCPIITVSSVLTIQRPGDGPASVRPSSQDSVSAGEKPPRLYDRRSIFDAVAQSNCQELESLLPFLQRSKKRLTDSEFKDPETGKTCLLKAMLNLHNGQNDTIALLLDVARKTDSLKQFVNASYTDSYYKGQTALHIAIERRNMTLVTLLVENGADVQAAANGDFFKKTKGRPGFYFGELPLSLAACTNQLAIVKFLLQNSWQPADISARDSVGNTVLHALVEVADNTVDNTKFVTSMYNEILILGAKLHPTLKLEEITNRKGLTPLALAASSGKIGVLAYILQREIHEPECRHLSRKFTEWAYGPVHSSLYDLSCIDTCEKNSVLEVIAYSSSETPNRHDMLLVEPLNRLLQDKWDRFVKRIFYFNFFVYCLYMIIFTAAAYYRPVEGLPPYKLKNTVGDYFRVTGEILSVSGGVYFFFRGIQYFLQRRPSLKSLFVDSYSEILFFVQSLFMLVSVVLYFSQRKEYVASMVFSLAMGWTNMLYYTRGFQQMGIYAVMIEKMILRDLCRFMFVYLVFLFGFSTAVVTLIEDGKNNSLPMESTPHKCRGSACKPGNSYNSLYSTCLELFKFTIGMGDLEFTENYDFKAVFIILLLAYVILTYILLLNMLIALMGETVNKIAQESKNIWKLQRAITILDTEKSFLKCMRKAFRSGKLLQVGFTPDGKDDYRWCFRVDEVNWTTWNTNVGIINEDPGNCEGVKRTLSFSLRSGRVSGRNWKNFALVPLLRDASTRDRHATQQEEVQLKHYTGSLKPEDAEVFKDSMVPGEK

`C=C(C)[C@@H]1CCC(C)=C[C@H]1c1c(O)cc(CCCCC)cc1O` [CBD, Cannabidiol]: the EC50 was in the range of 1 to 10 µM.
